Source: patent publication US20070128217A1 (priority 2003, published 2007)

Legend:
[1] = tested on: rabbit serum obtained by immunizing a rabbit with the SARS-CoV strain Frankfurt 1; format: binding; set-up: Binding of a rabbit serum to linear peptides / Binding of a rabbit serum to looped peptides / Rabbit serum linear peptides / Rabbit serum looped peptides / Binding of a rabbit serum to linear peptides of protein N of SARS-CoV Urbani (Rabbit serum linear peptides) / Binding of a rabbit serum to looped/cyclic peptides of protein N of SARS-CoV Urbani (Rabbit serum looped peptides): unit not given here
[2] = tested on: recombinant human anti-SARS-CoV antibody 03-018; format: binding; set-up: Binding of antibody 03-018 to linear peptides of the N protein of SARS-CoV Urbani / Binding of antibody 03-018 to looped/cyclic peptides of the N protein of SARS-CoV Urbani: unit not given here
[3] = tested on: control sera (pooled serum of ten healthy LUMC hospital workers; commercial negative donor pooled serum from the Dutch bloodbank); format: binding, human; set-up: Binding of Control serum LUMC to linear peptides / Binding of Control serum Blood-bank to linear peptides / Binding of Control serum LUMC to looped peptides / Binding of Control Serum Blood-Bank to Looped peptides / Binding of Control serum LUMC to linear peptides of the protein M of SARS-CoV Urbani / Binding of Control serum Blood-bank to linear peptides of the protein M of SARS-CoV Urbani / Binding of Control serum LUMC to looped peptides of the protein M of SARS-CoV Urbani / Binding of Control Serum Blood-Bank to Looped peptides of the protein M of SARS-CoV Urbani: unit not given here
[4] = tested on: antibodies in sera from SARS patients (sera 1a, 1b, 2, 6, 37, 62, London, SARS-yellow, SARS-green); format: binding, human; set-up: Binding of serum 6 to linear peptides of protein X1 of SARS-CoV Urbani / Binding of serum 37 to linear peptides of protein X1 of SARS-CoV Urbani / Binding of serum 6 to looped/cyclic peptide (PEPSCAN-ELISA) / Binding of serum 37 to looped/cyclic peptide (PEPSCAN-ELISA) / Binding of serum 37 to looped/cyclic peptides of protein X1 of SARS-CoV Urbani / Binding of serum 6 to linear peptides of protein X2 / Binding of serum 37 to linear peptides of protein X2 / Binding of serum 37 to looped/cyclic peptides of protein X2 of SARS-CoV Urbani / Binding of serum 6 to linear peptides of protein M of SARS-CoV Urbani / Binding of serum 37 to linear peptides of protein M of SARS-CoV Urbani / Binding of serum 6 to looped/cyclic peptides of protein M of SARS-CoV Urbani / Binding of serum 37 to looped/cyclic peptides of protein M of SARS-CoV Urbani / Binding of serum 6 to linear peptides of protein X3 of SARS-CoV Urbani / Binding of serum 37 to linear peptides of protein X3 of SARS-CoV Urbani / Binding of serum 37 to looped/cyclic peptides of protein X3 of SARS-CoV Urbani / Binding of serum 6 to linear peptides of protein X4 of SARS-CoV Urbani / Binding of serum 37 to linear peptides of protein X4 of SARS-CoV Urbani / Binding of serum 37 to looped/cyclic peptides of protein X4 of SARS-CoV Urbani / Binding of serum 6 to linear peptides of protein X5 of SARS-CoV Urbani / Binding of serum 37 to linear peptides of protein X5 of SARS-CoV Urbani / Binding of serum 37 to looped/cyclic peptides of protein X5 of SARS-CoV Urbani / Binding of serum 6 to linear peptides of protein N of SARS-CoV Urbani / Binding of serum 37 to linear peptides of protein N of SARS-CoV Urbani / Binding of serum 6 to linear peptide (PEPSCAN-ELISA) / Binding of serum 1a to looped/cyclic peptides of protein N of SARS-CoV Urbani / Binding of serum 1b to looped/cyclic peptides of protein N of SARS-CoV Urbani / Binding of serum 2 to looped/cyclic peptides of protein N of SARS-CoV Urbani / Binding of serum 6 to looped/cyclic peptides of protein N of SARS-CoV Urbani / Binding of serum 37 to looped/cyclic peptides of protein N of SARS-CoV Urbani / Binding of serum 62 to looped/cyclic peptides of protein N of SARS-CoV Urbani / Binding of serum London to looped/cyclic peptides of protein N of SARS-CoV Urbani / Binding of serum SARS-green to looped/cyclic peptides of protein N of SARS-CoV Urbani: unit not given here

## AEGSRGGSQASSRSS
[1]
  Binding of a rabbit serum to linear peptides of protein N of SARS-CoV Urbani (Rabbit serum linear peptides): 0.2
  Binding of a rabbit serum to looped/cyclic peptides of protein N of SARS-CoV Urbani (Rabbit serum looped peptides): 0.6
[2]
  Binding of antibody 03-018 to linear peptides of the N protein of SARS-CoV Urbani: 0.1
  Binding of antibody 03-018 to looped/cyclic peptides of the N protein of SARS-CoV Urbani: 0.2
[3]
  Binding of Control Serum Blood-Bank to Looped peptides: 0.6
  Binding of Control serum Blood-bank to linear peptides: 0.8
  Binding of Control serum LUMC to linear peptides: 0.8
  Binding of Control serum LUMC to looped peptides: 0.8
[4]
  Binding of serum 1a to linear peptide (PEPSCAN-ELISA): 0.3
  Binding of serum 1a to looped/cyclic peptides of protein N of SARS-CoV Urbani: 0.4
  Binding of serum 1b to linear peptide (PEPSCAN-ELISA): 0.2
  Binding of serum 1b to looped/cyclic peptides of protein N of SARS-CoV Urbani: 0.2
  Binding of serum 2 to linear peptide (PEPSCAN-ELISA): 0.3
  Binding of serum 2 to looped/cyclic peptides of protein N of SARS-CoV Urbani: 0.4
  Binding of serum 6 to linear peptide (PEPSCAN-ELISA): 0.3
  Binding of serum 6 to looped/cyclic peptides of protein N of SARS-CoV Urbani: 0.5
  Binding of serum 37 to linear peptide (PEPSCAN-ELISA): 0.7
  Binding of serum 37 to looped/cyclic peptides of protein N of SARS-CoV Urbani: 0.5
  Binding of serum 62 to linear peptide (PEPSCAN-ELISA): 0.7
  Binding of serum 62 to looped/cyclic peptides of protein N of SARS-CoV Urbani: 0.5
  Binding of serum London to linear peptide (PEPSCAN-ELISA): 0.5
  Binding of serum London to looped/cyclic peptides of protein N of SARS-CoV Urbani: 0.4
  Binding of serum SARS-green to linear peptide (PEPSCAN-ELISA): 0.4
  Binding of serum SARS-green to looped/cyclic peptides of protein N of SARS-CoV Urbani: 0.4
  Binding of serum SARS-yellow to linear peptide (PEPSCAN-ELISA): 0.6
  Binding of serum SARS-yellow to looped/cyclic peptides of protein N of SARS-CoV Urbani: 0.4

## AFFGMSRIGMEVTPS
[1]
  Binding of a rabbit serum to linear peptides of protein N of SARS-CoV Urbani (Rabbit serum linear peptides): 0.1
  Binding of a rabbit serum to looped/cyclic peptides of protein N of SARS-CoV Urbani (Rabbit serum looped peptides): 0.5
[2]
  Binding of antibody 03-018 to linear peptides of the N protein of SARS-CoV Urbani: 0.1
  Binding of antibody 03-018 to looped/cyclic peptides of the N protein of SARS-CoV Urbani: 0.2
[3]
  Control Serum Blood-Bank Looped peptides: 0.6
  Control serum Blood-bank linear peptides: 0.7
  Control serum LUMC linear peptides: 0.6
  Control serum LUMC looped peptides: 0.8
[4]
  Binding of serum 1a to linear peptides of protein N of SARS-CoV Urbani: 0.3
  Binding of serum 1a to looped/cyclic peptides of protein N of SARS-CoV Urbani: 0.4
  Binding of serum 1b to linear peptides of protein N of SARS-CoV Urbani: 0.1
  Binding of serum 1b to looped/cyclic peptides of protein N of SARS-CoV Urbani: 0.3
  Binding of serum 2 to linear peptides of protein N of SARS-CoV Urbani: 0.2
  Binding of serum 2 to looped/cyclic peptides of protein N of SARS-CoV Urbani: 0.4
  Binding of serum 6 to linear peptides of protein N of SARS-CoV Urbani: 0.2
  Binding of serum 6 to looped/cyclic peptides of protein N of SARS-CoV Urbani: 0.2
  Binding of serum 37 to linear peptides of protein N of SARS-CoV Urbani: 0.6
  Binding of serum 37 to looped/cyclic peptides of protein N of SARS-CoV Urbani: 0.6
  Binding of serum 62 to linear peptides of protein N of SARS-CoV Urbani: 0.7
  Binding of serum 62 to looped/cyclic peptides of protein N of SARS-CoV Urbani: 0.6
  Binding of serum London to linear peptides of protein N of SARS-CoV Urbani: 0.5
  Binding of serum London to looped/cyclic peptides of protein N of SARS-CoV Urbani: 0.4
  Binding of serum SARS-green to linear peptides of protein N of SARS-CoV Urbani: 0.2
  Binding of serum SARS-green to looped/cyclic peptides of protein N of SARS-CoV Urbani: 0.4
  Binding of serum SARS-yellow to linear peptides of protein N of SARS-CoV Urbani: 0.5
  Binding of serum SARS-yellow to looped/cyclic peptides of protein N of SARS-CoV Urbani: 0.5
